According to US5534542A, “Methods and materials relating to a bi-metallic cross-linking species” (priority 1994, dated 1996):
Entries after “also recorded” stand apart in the source; their conditions may differ.

Assays:
[1] = test system: radiolabelled DNA fragment; test: DNA-binding assay: electrophoretic mobility shift of a radiolabelled DNA fragment on polyacrylamide gel; conditions: for DNA mobility shift with increasing concentrations: polyacrylamide gel electrophoresis of radiolabelled DNA fragment
Description: The assay used to determine the DNA-binding activity of the complexes is based on the assays developed by Lippard and coworkers for assaying the extent of DNA binding by cis-DDP, in which the electrophoretic mobility of a DNA molecule is altered by binding of the drug (Sundquist, 1990). Charge neutralization and DNA bending caused by binding of the divalent metal complex have been invoked to explain the observed mobility shift.

[2] = cited from earlier work
MerR protein = target: T1, MerR protein (Pseudomonas aeruginosa, UniProt P0A183); test: In vitro DNA-protein crosslinking assay (gel mobility shift), MerR; format: biochemical; conditions: MerR and DNA fragment bearing its recognition sequence
T1 construct: made in house
Description: FIGS. 8-11: In vitro assay for crosslinking of proteins to DNA by 5-Chloromercuri-1,2-pentanediamine)dichloro platinum(II). Lane 1:4.5 pM DNA, 500 cpm Lane 2: DNA+460 pM MerR dimer Lane 3: DNA+protein+2.4 nM unlabeled competitor DNA Lane 4: DNA+protein+25 mM KCN Lane 5:DNA-protein complex treated with 10 mM 1 prior to competition. Lane 6: DNA-protein complex treated with 2 mM 1 prior to competition. Lane 7: DNA-protein complex treated with 0.4 mM crosslinker prior to competition Lanes 8-10: Reactions as for lane 5-7, pretreated with 25 mM KCN prior to competition. (Grant)
(§1) (Pried & Crothers, 1981; Garner & Revsin, 1981).
Proteins and DNA Probes. TFIIIA from Xenopus Borealis was provided by T. Tullius (Johns Hopkins University) and A. Wolffe (NIH). Fur was purified based on the method of Neilands and coworkers. MerR extract was obtained and quantified as described (O'Halloran, 1989). DNA probes used in TFIIIA, Fur, and MerR gel mobility shift assays were derived from plasmids pXBS201 (obtained from T. Tullius), pGMer and pBIB, respectively. […] DNA concentrations were determined by optical density at 260 nm by using a molar extinction coefficient of 1.3×10^4 per nucleotide pair. […]

Stability at low pH = format: physicochemical
[3] = Solubility of the cross-linker complex in solvents; format: physicochemical
Description: The cross-linker species of the present invention has been characterized by a combination of analytical and spectroscopic techniques. […] The complex is quite soluble in DMSO, although a warning has been issued concerning the compositions of DMSO solutions of cisplatin derivatives (Sundquist, 1987). The proton NMR spectrum of the complex in d7-DMF is poorly resolved, and the resonances due to the residual protons in the deuterated solvent tend to obscure parts of the spectrum of the complex.
This appears to be an effect of particle size on dissolution rate, since no differences can be discerned in the infrared spectra of the complex before or after this treatment. In particular there is no evidence for coordinated DMSO in the region 1000-1200 cm-^1.

TFIIIA = target: T2, TFIIIA (Xenopus borealis, UniProt P17842); test: In vitro DNA-protein crosslinking assay (gel mobility shift), TFIIIA; format: biochemical; conditions: zinc finger transcription factor TFIIIA and DNA fragment bearing its recognition sequence
T2 sequence (P17842 1-339): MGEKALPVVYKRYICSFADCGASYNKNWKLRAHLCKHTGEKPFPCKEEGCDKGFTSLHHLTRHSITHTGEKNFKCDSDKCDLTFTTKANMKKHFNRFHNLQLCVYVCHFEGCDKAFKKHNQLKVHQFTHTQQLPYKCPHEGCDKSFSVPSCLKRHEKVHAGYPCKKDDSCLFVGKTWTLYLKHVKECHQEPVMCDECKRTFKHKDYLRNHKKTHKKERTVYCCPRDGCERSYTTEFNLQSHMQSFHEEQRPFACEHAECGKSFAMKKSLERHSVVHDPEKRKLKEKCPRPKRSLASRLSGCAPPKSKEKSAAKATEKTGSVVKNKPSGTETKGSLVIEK
Description: as §1
(§2) Proteins and DNA Probes. TFIIIA from Xenopus Borealis was provided by T. Tullius (Johns Hopkins University) and A. Wolffe (NIH). Fur was purified based on the method of Neilands and coworkers. MerR extract was obtained and quantified as described (O'Halloran, 1989). DNA probes used in TFIIIA, Fur, and MerR gel mobility shift assays were derived from plasmids pXBS201 (obtained from T. Tullius), pGMer and pBIB, respectively. The 249-bp BamHI-HindIII fragment from pXBS201, 309-bp XhoI-PvuII fragment from pBIB and 411-bp BssHII-BssHII fragment from pGMer are labeled with [α-^32 P]dNTPs (Amersham) by the Klenow fragment of DNA polymerase (Bethesda Research Laboratories). The labeled fragments are then isolated and purified by gel electrophoresis. DNA concentrations were determined by optical density at 260 nm by using a molar extinction coefficient of 1.3×10^4 per nucleotide pair.
(§3) Crosslinking Activity Assay. DNA-protein-crosslinker are incubated in 20 μl (final volume) of binding buffer. The buffer for TFIIIA and MerR extract reaction is 20 mM Hepes [pH 7.5], 50 mM K2 SO4, 10 μMZnsO4, 3 mM MgCl2, 10% glycerol and 70 μg/ml Albumin, Bovine-carboxymethyl [c-BSA] (Sigma). The Fur incubation buffer is 20 mM Bis-Tris/Borate [pH 7.0], 50 mM K2 SO4, 5% glycerol, 1 mM MgCl2, 5 μG/ml salmon sperm DNA and 100 μg/ml c-BSA. […]

[4] = Kinetics of the reaction of the complex with DMSO (UV spectroscopy); format: physicochemical; conditions: room temperature; in accord with published rate data for cis-Pt(NH3)2Cl2
Description: ^1 H, ^13 C, ^195 Pt and ^199 Hg NMR spectra were recorded on a Varian VXR-400 Fourier Transform spectrometer, operating at 399.95 MHZ (^1 H), […] (^13 C), 85.736 MHz (^195 Pt), and 71.600 MHz (^199 Hg). Standard acquisition parameter files were used for the accumulation of ^1 H and ^13 C spectra. For ^195 Pt NMR, a spectral window of 50 KHz was used, with a pulse width of 30 μsec, and a pulse delay of 100 μsec. Broadband proton decoupling was employed during acquisition of the spectra. ^195 Pt spectra were referenced externally using a 0.1M aqueous solution of K2 PtCl4 in 0.1M KCl. Chemical shifts are reported relative to K2 PtCl6 =0 ppm. (δK2 PtCl4 =[…]). Proton-decoupled ^199 Hg NMR spectra were recorded using a spectral window of 30 KHz, a pulse width of 30 μsec, and a pulse delay of 100 μsec. Chemical shifts are reported relative to external Hg(CH3)2 (0 ppm). Mass spectra were recorded using a VG instruments VG70-250 S/SE instrument. Infrared spectra were recorded using either a Perkin-Elmer PE-283 or a Mattson Alpha Centauri FTIR spectrometer. UV spectra were obtained using a Hewlett-Packard HP8452 spectrophotometer running off of an IBM-AT personal computer. Kinetic measurements were controlled using the Hewlett-Packard Multicell Kinetics Module. Data manipulation and plotting was performed using the program Igor^24 running on a Macintosh IIx personal computer. […]

Fur = target: T3, Fur (Escherichia coli, UniProt P0A9A9); test: In vitro DNA-protein crosslinking assay (gel mobility shift), Fur; format: biochemical; conditions: Fur and DNA fragment bearing its recognition sequence
T3 construct: made in house
Description: as §1, §2, §3

T1 sequence (P0A183 whole entry, the tested form may be a part): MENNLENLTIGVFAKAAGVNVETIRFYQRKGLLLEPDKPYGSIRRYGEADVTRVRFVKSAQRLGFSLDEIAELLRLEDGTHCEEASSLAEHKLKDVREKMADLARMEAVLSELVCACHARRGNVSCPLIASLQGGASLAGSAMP
T3 sequence (P0A9A9 2-148): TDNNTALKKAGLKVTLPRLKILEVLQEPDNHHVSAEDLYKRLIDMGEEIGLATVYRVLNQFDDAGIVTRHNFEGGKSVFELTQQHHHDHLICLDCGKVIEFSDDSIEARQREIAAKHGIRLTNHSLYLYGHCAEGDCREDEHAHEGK

| Molecule | DNA mobility shift with increasing concentrations [1] | toxicity in phase I trials [2] | induction of DNA-protein cross-links, MerR (MerR protein) | induction of DNA-protein cross-links, TFIIIA (TFIIIA) | binding to DNA [1] | induction of DNA-protein cross-links, Fur (Fur) | further results |
| --- | --- | --- | --- | --- | --- | --- | --- |
| [CH3][Hg][Cl] [MeHgCl] | does not exhibit a mobility shift at all |  |  |  |  |  |  |
| NCC1(CN)CCOCC1.O=C([O-])C1(C(=O)[O-])CCC1.[Pt+2] [enloplatin] |  | caused nephrotoxicity |  |  |  |  |  |
| 5-Chloromercuri-1,2-pentanediamine)dichloro platinum(II) [Merplatin] | saturation binding curve which is identical in form with a curve obtained by incubation of DNA with PtenCl2 |  | can efficiently induce DNA-protein cross-links | can efficiently induce DNA-protein cross-links | bind avidly to DNA | can efficiently induce DNA-protein cross-links | stability at low pH (Stability at low pH): stable at low pH; solubility in DMSO ([3]; DMSO): quite soluble; solubility in NMP after reprecipitation ([3]; NMP, after dissolution in DMSO and immediate precipitation with ethanol): readily soluble; solubility in amide solvents ([3]; dimethylformamide or 1-methylpyrrolidinone (NMP), complex as prepared in Example 1): limited solubility; also recorded: dissolves sparingly; concentration of solutions that can be prepared in amide solvents ([3]; dimethylformamide or NMP, complex as prepared in Example 1): ~ 10 mM; solubility in water and most organic solvents ([3]; water and most organic solvents, listed as complex): limited solubility; also recorded: low solubility; half-life of reaction with DMSO [4]: approximately 3 hours |
| O=C([O-])C1(C(=O)[O-])CCC1.[NH-]CC(C[NH-])(CO)CO.[Pt+4] [zeniplatin] |  | caused nephrotoxicity |  |  |  |  |  |
| N.N.[Cl][Pt][Cl] [cisplatin, cis-dicholorodiammineplatinum(II), reference compound] |  |  | only the latter reagent can efficiently induce DNA-protein cross-links | only the latter reagent can efficiently induce DNA-protein cross-links | bind avidly to DNA | only the latter reagent can efficiently induce DNA-protein cross-links |  |
| NCCN.[Cl][Pt][Cl] [PtenCl2] | saturation binding curve |  |  |  |  |  |  |
